Reference: ChEMBL document CHEMBL4680234, “Antibacterial AZT derivative regulates metastasis of breast cancer cells” (Eur J Med Chem, 2020)
In brackets after ≈: the same amount, converted by molar mass.

Experiments:
[1] = Hemolytic activity in sheep RBC assessed as hemolysis at 4 ug/ml measured after 2 hrs by ELISA relative to control; type: ADME, cell-based, Ovis aries, Erythrocyte; settings: sheep red blood cells (erythrocytes), at 4 µg/mL, read-out: Activity
Erythrocyte [2] = assay: Hemolytic activity in sheep RBC measured after 2 hrs by ELISA; type: ADME, cell-based, Ovis aries
[3] = Therapeutic index, ratio of MHC for sheep RBC to geometric mean of peptide MIC for Escherichia coli KCTC 1682; type: toxicity; settings: sheep red blood cells (erythrocytes), read-out: TI
[4] = Therapeutic index, ratio of MHC for sheep RBC to geometric mean of peptide MIC for Pseudomonas aeruginosa KCTC 1637; type: toxicity; settings: sheep red blood cells (erythrocytes), read-out: TI
[5] = Therapeutic index, ratio of MHC for sheep RBC to geometric mean of peptide MIC for Bacillus subtilis KCTC 3068; type: toxicity; settings: sheep red blood cells (erythrocytes), read-out: TI
[6] = Therapeutic index, ratio of MHC for sheep RBC to geometric mean of peptide MIC for Staphylococcus aureus KCTC 1621; type: toxicity; settings: sheep red blood cells (erythrocytes), read-out: TI
Escherichia coli [7] = assay: Antibacterial activity against Escherichia coli KCTC 1682 assessed as reduction in bacterial growth incubated for 18 to 22 hrs by spectrophotometry based broth microdilution method; type: functional; settings: time 18-22 hrs, read-out: MIC100
Pseudomonas aeruginosa [8] = assay: Antibacterial activity against Pseudomonas aeruginosa KCTC 1637 assessed as reduction in bacterial growth incubated for 18 to 22 hrs by spectrophotometry based broth microdilution method; type: functional; settings: time 18-22 hrs, read-out: MIC100
Bacillus subtilis [9] = assay: Antibacterial activity against Bacillus subtilis KCTC 3068 assessed as reduction in bacterial growth incubated for 18 to 22 hrs by spectrophotometry based broth microdilution method; type: functional; settings: time 18-22 hrs, read-out: MIC100
Staphylococcus aureus [10] = assay: Antibacterial activity against Staphylococcus aureus KCTC 1621 assessed as reduction in bacterial growth incubated for 18 to 22 hrs by spectrophotometry based broth microdilution method; type: functional; settings: time 18-22 hrs, read-out: MIC100
Escherichia coli [11] = assay: Potency index, ratio of melittin MIC to test compound MIC for antibacterial activity against Escherichia coli KCTC 1682; type: functional
Pseudomonas aeruginosa [12] = assay: Potency index, ratio of melittin MIC to test compound MIC for antibacterial activity against Pseudomonas aeruginosa KCTC 1637; type: functional
Erythrocyte [13] = assay: Hemolytic activity in sheep RBC at 16 ug/ml measured after 2 hrs by ELISA; type: cell-based, Ovis aries; settings: dose 16 µg/ml
Bacillus subtilis [14] = assay: Potency index, ratio of melittin MIC to test compound MIC for antibacterial activity against Bacillus subtilis KCTC 3068; type: functional
Staphylococcus aureus [15] = assay: Potency index, ratio of melittin MIC to test compound MIC for antibacterial activity against Staphylococcus aureus KCTC 1621; type: functional
Staphylococcus aureus [16] = assay: Antimicrobial activity against methicillin-resistant Staphylococcus aureus CCARM 3089 assessed as reduction in microbial growth incubated for 18 to 24 hrs by broth microdilution method; type: functional; settings: time 18-24 hrs
Staphylococcus aureus [17] = assay: Antimicrobial activity against methicillin-resistant Staphylococcus aureus CCARM 3090 assessed as reduction in microbial growth incubated for 18 to 24 hrs by broth microdilution method; type: functional; settings: time 18-24 hrs
Staphylococcus aureus [18] = assay: Antimicrobial activity against methicillin-resistant Staphylococcus aureus CCARM 3095 assessed as reduction in microbial growth incubated for 18 to 24 hrs by broth microdilution method; type: functional; settings: time 18-24 hrs

Row | SMILES | MHC (Erythrocyte [2]) [µg/mL] | selectivity ratio [3] | selectivity ratio [4] | selectivity ratio [5] | selectivity ratio [6] | MIC (Escherichia coli [7]) [µg/mL] | MIC (Pseudomonas aeruginosa [8]) [µg/mL] | MIC (Bacillus subtilis [9]) [µg/mL] | MIC (Staphylococcus aureus [10]) [µg/mL] | also measured
1 | CC[C@H](C)[C@H](NC(=O)CN)C(=O)NCC(=O)N[C@@H](C)C(=O)N[C@H](C(=O)N[C@@H](CC(C)C)C(=O)N[C@@H](CCCCN)C(=O)N[C@H](C(=O)N[C@@H](CC(C)C)C(=O)N[C@H](C(=O)N[C@H](C(=O)NCC(=O)N[C@@H](CC(C)C)C(=O)N1CCC[C@H]1C(=O)N[C@@H](C)C(=O)N[C@@H](CC(C)C)C(=O)N[C@H](C(=O)N[C@@H](CO)C(=O)N[C@@H](Cc1c[nH]c2ccccc12)C(=O)N[C@H](C(=O)N[C@@H](CCCCN)C(=O)N[C@@H](CCCNC(=N)N)C(=O)N[C@@H](CCCCN)C(=O)N[C@@H](CCCNC(=N)N)C(=O)N[C@@H](CCC(N)=O)C(=O)N[C@@H](CCC(N)=O)C(N)=O)[C@@H](C)CC)[C@@H](C)CC)[C@@H](C)O)[C@@H](C)O)C(C)C)C(C)C [MELITTIN] | 4 | 0.3 | 0.3 | 0.3 | 0.3 |  |  |  |  | hemolysis at 2 h, 4 ug/ml [1]: 12%
2 | Cc1cn([C@H]2C[C@H](NC(=O)CC34CC5CC(CC(C5)C3)C4)[C@@H](CNC(=O)CC34CC5CC(CC(C5)C3)C4)O2)c(=O)nc1NCCNC(=N)N | 43 | 0.9 | 0.9 | 0.9 | 0.9 | 64 (≈ 94.5 µM) | > 64 | 4 (≈ 5.91 µM) | 4 (≈ 5.91 µM) | Ratio (Escherichia coli [11]): 2; Ratio (Pseudomonas aeruginosa [12]): 2; Activity (Erythrocyte [13]): Non-Toxic
3 | CCCCCC(=O)NC[C@H]1O[C@@H](n2cc(C)c(N(CCCN)CCCN)nc2=O)C[C@@H]1NC(=O)CCCCC |  |  |  |  |  | > 64 | 8 (≈ 14.6 µM) | 64 (≈ 116 µM) | > 64 | 
4 | Cc1cn([C@H]2C[C@H](NC(=O)Cc3cccc4ccccc34)[C@@H](CNC(=O)Cc3cccc4ccccc34)O2)c(=O)nc1N(CCCNC(=N)N)CCCNC(=N)N |  |  |  |  |  | 64 (≈ 82.7 µM) | 16 (≈ 20.7 µM) | 4 (≈ 5.17 µM) | 8 (≈ 10.3 µM) | Ratio (Bacillus subtilis [14]): 2
5 | Cc1cn([C@H]2C[C@H](NC(=O)CC34CC5CC(CC(C5)C3)C4)[C@@H](CNC(=O)CC34CC5CC(CC(C5)C3)C4)O2)c(=O)nc1N(CCCN)CCCN | 52 | 5 | 5 | 5 | 5 | 32 (≈ 45.3 µM) | 4 (≈ 5.67 µM) | 2 (≈ 2.83 µM) | 4 (≈ 5.67 µM) | Ratio (Pseudomonas aeruginosa [12]): 4; Ratio (Bacillus subtilis [14]): 4; Ratio (Staphylococcus aureus [15]): 2; Activity (Erythrocyte [13]): Non-Toxic
6 | Cc1onc(-c2ccccc2)c1C(=O)N[C@@H]1C(=O)N2[C@@H]1SC(C)(C)[C@@H]2C(=O)O [OXACILLIN] |  |  |  |  |  |  |  |  |  | MIC (Staphylococcus aureus [16]): 256 µg/mL; MIC (Staphylococcus aureus [17]): 512 µg/mL; MIC (Staphylococcus aureus [18]): 256 µg/mL
7 | Cc1cn([C@H]2C[C@H](NC(=O)C3CCCCC3)[C@@H](CNC(=O)C3CCCCC3)O2)c(=O)nc1N(CCCN)CCCN |  |  |  |  |  | > 64 | 64 (≈ 112 µM) | 64 (≈ 112 µM) | > 64 | 
8 | Cc1cn([C@H]2C[C@H](NC(=O)C3CCCCC3)[C@@H](CNC(=O)C3CCCCC3)O2)c(=O)nc1N(CCCNC(=N)N)CCCNC(=N)N |  |  |  |  |  | > 64 | 16 (≈ 24.3 µM) | 32 (≈ 48.6 µM) | 32 (≈ 48.6 µM) | 
9 | O=C(N[C@H](CO)[C@H](O)c1ccc([N+](=O)[O-])cc1)C(Cl)Cl [CHLORAMPHENICOL] |  |  |  |  |  |  |  |  |  | MIC (Staphylococcus aureus [16]): 512 µg/mL; MIC (Staphylococcus aureus [17]): 256 µg/mL; MIC (Staphylococcus aureus [18]): 512 µg/mL
10 | Cc1cn([C@H]2C[C@H](NC(=O)CCCc3ccccc3)[C@@H](CNC(=O)CCCc3ccccc3)O2)c(=O)nc1N(CCCNC(=N)N)CCCNC(=N)N |  |  |  |  |  | > 64 | 16 (≈ 21.9 µM) | 8 (≈ 11 µM) | 8 (≈ 11 µM) | 
